Series [1] deals with asexual blood stages of Pf W2 (drug resistant). On the set-up: method as in PMID 29866868, PMID 31998692. The note with it: asexual blood stage Pf W2, multidrug resistant; SYBR Green I; ± SEM; cited from earlier work.
The subject of a further series is Toxoplasma gondii (Tg). On the set-up: method as in PMID 19635951. The settings on record: read-out: EC50 against Tg in vitro; cited from earlier work.
In series [2] the test system is asexual blood stages of Pf NF54 (drug sensitive). On the set-up: method as in PMID 29866868, PMID 31998692. The settings on record: asexual blood stage Pf NF54, CQ sensitive; SYBR Green I; ± SEM; cited from earlier work.
A further series concerns TM-C2B. On the set-up: method as in ref S2. The settings on record: [3H]-hypoxanthine assay; ref S2; read-out: Antimalarial activities IC50 TM-C2B; cited from earlier work.
The subject of series [3] is CQ-sensitive P. berghei N strain. The note with it: Peters four-day test, mice, ref S4 (24), cited from earlier work.
Series [4] deals with late-stage (LG) Pf NF54 gametocytes. On the set-up: method as in PMID 29866868. The note with it: late-stage gametocytes >90% stages IV-V; 48 h incubation; ± SEM; cited from earlier work.
The test system of another series is W2 (CQ resistant). On the set-up: method as in ref S2. The settings on record: [3H]-hypoxanthine assay; ref S2; read-out: Antimalarial activities IC50 W2; cited from earlier work.
A further series concerns 7G8 (CQ resistant). On the set-up: method as in ref S2. The settings on record: [3H]-hypoxanthine assay; ref S2; read-out: Antimalarial activities IC50 7G8; cited from earlier work.
Series [5] has as its system TM91-C235 (CQ and MFQ resistant). On the set-up: method as in ref S2. The note with it: [3H]-hypoxanthine assay; ref S2; read-out: Antimalarial activities IC50 TM91-C235; cited from earlier work.
Series [6] relates to TM93-C1088 (atovaquone and CQ resistant). On the set-up: method as in ref S2. The settings on record: [3H]-hypoxanthine assay; ref S2; read-out: Antimalarial activities IC50 TM93-C1088; cited from earlier work.
Series [7] deals with fetal rat brain stem cells. The settings on record: cited from earlier work.
Series [8] concerns early-stage (EG) Pf NF54 gametocytes. On the set-up: method as in PMID 29866868. The settings on record: early-stage gametocytes >95% stages II-III; 48 h incubation; ± SEM; cited from earlier work.
Series [9] concerns CQ-resistant P. yoelii NS strain. The settings on record: Peters four-day test, mice, subcutaneous; ref S4 (24); cited from earlier work.
For series [10] the following is noted: single dose 10 mg/kg, healthy Aotus monkeys; cited from earlier work.
The subject of series [11] is asexual blood stages of Pf K1 (drug resistant). On the set-up: method as in PMID 29866868, PMID 31998692. The note with it: asexual blood stage Pf K1, multidrug resistant; SYBR Green I; ± SEM; cited from earlier work.
Series [12] deals with late-stage (LG) Pf NF54 gametocytes. Put plainly: Luciferase assay, late-stage gametocytes. Type of series: cell-based, Plasmodium falciparum. The note with it: fixed dose of 1 µM, 48 h incubation. As to the method: (§1) For screening artemisox and M1 against early- (EG) and late-stage (LG) gametocytes, the luciferase assay with transgenic NF54-pfs16-GFP-Luc and NF54-Mal8p1.16-GFP-Luc parasite lines was used. With this assay, stage-specificity of gametocytocidal action was established (Table 2). Dose-response curves are in Figures S1d,e and S2d in the Supplementary Material 1. […] As was observed previously for artemisone and artemiside, dose responses for artemisox and M1 could not be obtained at 48 h against late-stage gametocytes.
(§2) The same reference compounds with the exception of CQ were used for the early- and late-stage gametocyte assays. Gametocytocidal activity was determined using the transgenic NF54-pfs16-GFP-Luc and NF54-Mal8p1.16-GFP-Luc reporter lines. Compounds were initially screened for activity at a fixed drug concentration of 1 µM, with dose responses subsequently determined using 2-fold serial drug dilutions for 48 h against early-stage gametocytes (day 5 post-induction population, ≥95% stages II–III) and 10-fold serial drug dilutions for 48 h or 72 h against late-stage gametocytes (day 10 post-induction population, ≥90% late-stage [stages IV–V]) (2 to 3% gametocytemia, 2% hematocrit) at 37 °C under 90% N2, 5% CO2, and 5% O2 [6]. No drug washout steps were performed during the drug incubation periods prior to the assays. In all cases, an interference assay was run in parallel to eliminate the possibility of false positives arising through compound interference with the luciferase readout.

Series [13] concerns asexual blood stages of Pf W2 (drug resistant). Put plainly: SYBR Green I proliferation assay, asexual blood stages, Pf W2. Type of series: cell-based, Plasmodium falciparum. As to the method: (§3) Dose response curves are in Figures S1a–c and S2a–c in the Supplementary Material 1. Table 1 also includes the historical values for artemiside and artemisone obtained using the same assay.
(§4) All other assay conditions are as previously described. Compound working solutions were prepared from a 10 mM stock solution in 100% (vol/vol) dimethyl sulfoxide (DMSO, Sigma-Aldrich) in supplemented RPMI 1640 medium containing AlbuMAX II with a final DMSO concentration of 0.1% (vol/vol), previously determined to be nontoxic to blood stage asexual parasites and gametocytes. The dose-responses of the amino-artemisinins were assayed using a 2-fold serial drug dilution on in vitro 95% ring-stage parasites at 37 °C under 90% N2, 5% CO2, and 5% O2 atmospheric conditions, detecting SYBR green I fluorescence as the proliferative marker following a 96 h drug treatment (1% parasitemia and 1% hematocrit) using a GloMaxR-Multi+ Detection System (Promega). No drug washout steps were performed during drug incubation periods prior to the assays. Activity against the Pf drug-sensitive NF54 strain and the drug-resistant K1 (resistant to CQ, quinine, pyrimethamine, and cycloguanil) and W2 (resistant to CQ, quinine, pyrimethamine, and cycloguanil) strains was evaluated. Data analysis was performed using GraphPad Prism (version 6), intra-assay variability was monitored with Z-factors, and acceptable interassay reproducibility was determined from the percent coefficient of variation (CV).

Series [14] relates to asexual blood stages of Pf K1 (drug resistant). Put plainly: SYBR Green I proliferation assay, asexual blood stages, Pf K1. The format is cell-based, Plasmodium falciparum. As to the method:
as §3, §4

Series [15] concerns asexual blood stages of Pf NF54 (drug sensitive). Put plainly: SYBR Green I proliferation assay, asexual blood stages, Pf NF54. Type of series: cell-based, Plasmodium falciparum. As to the method: as §3, §4
Series [16] in a line: Cytotoxicity (LDH assay) against HepG2 cells. The format is cell-based. The settings on record: human, HepG2 cells (hepatocellular carcinoma). As to the method:
Cytotoxicity against mammalian hepatocellular carcinoma cells (HepG2 cells) was determined using the lactate dehydrogenase assay (LDH, Biovision Inc., Milpitas, CA, USA). […] Compound working solutions were prepared from 10 mM stock solutions (100% DMSO) in complete DMEM to a final DMSO (Sigma-Aldrich) conc. of <0.1% (vol/vol). […] Data analysis was performed using GraphPad Prism (version 6) software.

A further series relates to D6 (CQ sensitive). On the set-up: method as in ref S2. The note with it: [3H]-hypoxanthine assay; ref S2; read-out: Antimalarial activities IC50 D6; cited from earlier work.
Series [17] deals with early-stage (EG) Pf NF54 gametocytes. The experiment in a line: Luciferase assay, early-stage gametocytes. Type of series: cell-based, Plasmodium falciparum. The settings on record: Plasmodium falciparum, NF54, 48 h, early-stage gametocytes >95% stages II-III; 48 h incubation; ± SEM. As to the method:
as §1, §2

On the set-up of series [18]: method as in PMID 34097488. The note with it: cited from earlier work.

The term IC50 denotes the midpoint of a concentration-inhibition curve. A word on the EC50: it is the concentration that produces a half-maximal response.

Read-outs that look alike come from different tables or passages of the source.

For the compound `C[C@H]1[C@H](OC(=O)CCC(=O)O)O[C@@H]2O[C@@]3(C)CC[C@H]4[C@H](C)CC[C@@H]1[C@@]24OO3` [Artesunate 4, Artesunate], the IC50 in [1] is 2.4 ± 0.4 nM; in [2], 3 ± 0.29 nM; in the series on TM-C2B, 2.5 ± 0.5 nM; in series [4] it was 259 ± 80 nM; in the series on W2 (CQ resistant) it was 3 ± 1.6 nM; in the series with 7G8 (CQ resistant), 1.5 ± 0.2 nM. In addition, the half-inhibitory concentration (IC50) in series [5] was 2.9 ± 1.4 nM; in [6] it was 1.4 ± 0.1 nM; in series [8], 62.8 ± 3 nM; in series [11], 4 ± 1 nM. Besides, the EC50 in the series on Toxoplasma gondii (Tg) was 213 nM. Moreover, in series [3] (oral daily day 0-3), the “P. berghei ED90 po” value is given as 7.1 mg/kg. In addition, the “P. berghei ED90 sc” value in series [3] (subcutaneous daily day 0-3) is reported as 7.2 mg/kg. In addition, the “Viability NOEC” value in series [7] was 0.1 µg/mL. Besides, in [7] (effect on the cytoskeleton on day 7, ref S4 (24)), the “Neurofilaments IC50” value was 5.0 µg/mL. Also, the “P. yoelii ED90 sc” value in series [9] is given as 22.0 mg/kg. For the same compound, the “ex vivo antimalarial activity observable up to (post dose)” value in series [10] was “up to 1 h”.
Take `C[C@H]1[C@H](N2C=CS(=O)(=O)CC2)O[C@@H]2O[C@@]3(C)CC[C@H]4[C@H](C)CC[C@@H]1[C@@]24OO3` [M1 8, M1]: the “inhibition of LG viability” value in [12] is listed as above 90%. Further, the IC50 in the series on TM-C2B was 8.6 ± 8.2 nM; in [13] (Plasmodium falciparum, asexual blood stage Pf W2, multidrug resistant, SYBR Green I, 96 h, ± SEM) it was 2.26 ± 0.08 nM; in series [14] (Plasmodium falciparum, asexual blood stage Pf K1, multidrug resistant, SYBR Green I, 96 h, ± SEM), 1.5 ± 0.23 nM; in the series with W2 (CQ resistant), 6.6 ± 0.4 nM; in the series with 7G8 (CQ resistant) it was 2.6 ± 0.8 nM; in series [5] it was 5 ± 0.6 nM. Further, the IC50 in series [6] is 2.5 ± 0.4 nM; in series [15] (Plasmodium falciparum, NF54, 96 h, asexual blood stage Pf NF54, CQ sensitive, SYBR Green I, 96 h, ± SEM, read-out: IC50 NF54) it was 2.63 ± 0.24 nM; in [15] (Plasmodium falciparum, NF54, summary over NF54, K1 and W2 strains, read-out: IC50 against asexual Pf blood stage parasites), around 2 nM; in series [15] (summary over NF54, K1 and W2 strains, read-out: IC50 against asexual Pf blood stage parasites), 1.5 to 2.6 nM; in the series with D6 (CQ sensitive), 4.7 ± 0.2 nM; in series [17], 13.4 ± 2.7 nM. Besides, in [13], the “RI = IC50 W2/IC50 NF54” value amounted to 0.86. In addition, the “RI (resistance index) = IC50 K1/IC50 NF54” value in series [14] is 0.57. Moreover, in [16], the IC50 at 24 h is above 50000 nM. Moreover, the “fold greater human microsomal half-life than artemisone” value in [18] was above 15 fold; in [18] (listed as M1), at least 15 fold.

The record behind these values is publication PMC8704606, “The Artemiside-Artemisox-Artemisone-M1 Tetrad: Efficacies against Blood Stage P. falciparum Parasites, DMPK Properties, and the Case for Artemiside” (Pharmaceutics, 2021).
